Experimental data: patent US20110046066A1, “INHIBITORS OF IAP” (GENENTECH, INC., priority 2008, published 2011)
Where “and” joins values, the source holds several entries; their conditions need not be identical. Equal values may be shown once.

Assays:
C-IAP1 BIR3 = molecular target: T1, C-IAP1 BIR3 (Homo sapiens, UniProt Q13490); experiment: Fluorescence polarization peptide binding assay, C-IAP1 BIR3; conditions: for IC50: 0.2 μM C-IAP1 BIR3, 5 nM AVP-diPhe-FAM probe, one hour incubation; for Ki: determined from the IC50 values (procedure of Keating et al.)
T1 construct: 0.2 μM C-IAP1 BIR3
T1 sequence (Q13490 253-363 limits assumed): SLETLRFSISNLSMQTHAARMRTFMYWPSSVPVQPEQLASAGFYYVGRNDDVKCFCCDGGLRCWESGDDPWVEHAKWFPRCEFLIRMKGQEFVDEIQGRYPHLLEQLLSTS
Experimental: (§1) Polarization experiments were performed on an Analyst HT 96-384 reader (Molecular Devices Corp.) in order to determine dissociation constants (Kd) between IAP protein BIR domains and the fluorescent probe. Samples for fluorescence polarization affinity experiments were prepared by addition of serial dilutions of IAP BIR domains (C-IAP1 BIR3, C-IAP-2 BIR3, ML/X-IAP chimera MLXBIR3SG and X-IAP BIR3) in polarization buffer (50 mM Tris [pH 7.2], 120 mM NaCl, 1% bovine globulins 5 mM DTT and 0.05% octylglucoside) to 5-carboxyflourescein-conjugated AVPdi-Phe-NH2 (AVP-diPhe-FAM) at 5 nM final concentration.
(§2) The reactions were read after an incubation time of 1 hour at room temperature with standard cut-off filters for the fluorescein fluorophore (λex=485 nm; λem=530 nm) in 384-well black plates (Molecular Devices Corp.). Fluorescence polarization values were plotted as a function of the protein concentration, and the effective concentration 50 (EC50) values were obtained by fitting the data to a 4-parameter equation using Kaleidagraph software (Synergy software, Reading, Pa.). The apparent Kd values were determined from the EC50 values. Inhibition Constants (Ki values) for the antagonists were determined by the addition of 0.06 μM MLXBIR3SG, 0.5 μM X-IAP BIR3, 0.2 μM C-IAP1 BIR3 or 0.4 μM C-IAP-2 BIR3 to wells containing 5 nM of the AVP-diPhe-FAM probe as well as 1:3 serial dilutions of antagonist compounds starting at a concentration of 200 μM in the polarization buffer. Samples were read after an incubation time of one hour. Fluorescence polarization values were plotted as a function of the antagonist concentration, and the IC50 values were obtained by fitting the data to a 4-parameter equation using Kaleidagraph software (Synergy software, Reading, Pa.). Ki values for the antagonists were determined from the IC50 values according to the procedure of Keating, S. M., Marsters, J, Beresini, M., Ladner, C., Zioncheck, K., Clark, K., Arellano, F., and Bodary, S. (2000) in Proceedings of SPIE: In Vitro Diagnostic Instrumentation (Cohn, G. E., Ed.) pp 128-137, Bellingham, Wash. […] All values are micromolar.

C-IAP2 BIR3 = molecular target: T2, C-IAP2 BIR3 (Homo sapiens, UniProt Q13489); experiment: Fluorescence polarization peptide binding assay, C-IAP2 BIR3; conditions: for IC50: 0.4 μM C-IAP-2 BIR3, 5 nM AVP-diPhe-FAM probe, one hour incubation; for Ki: determined from the IC50 values (procedure of Keating et al.)
T2 construct: 0.4 μM C-IAP-2 BIR3
T2 sequence (Q13489 238-349 limits assumed): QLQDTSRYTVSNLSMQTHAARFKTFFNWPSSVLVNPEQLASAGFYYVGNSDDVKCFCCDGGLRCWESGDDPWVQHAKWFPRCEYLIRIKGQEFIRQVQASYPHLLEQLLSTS
Experimental: as §1, §2

[1] = molecular target: T3, ML/X-IAP chimera MLXBIR3SG (Homo sapiens, UniProt Q96CA5, S150G); experiment: Fluorescence polarization peptide binding assay, MLXBIR3SG; conditions: for IC50: 0.06 μM MLXBIR3SG, 5 nM AVP-diPhe-FAM probe, one hour incubation; for Ki: determined from the IC50 values (procedure of Keating et al.)
T3 sequence (Q96CA5 with tags, fused parts or gaps S150G): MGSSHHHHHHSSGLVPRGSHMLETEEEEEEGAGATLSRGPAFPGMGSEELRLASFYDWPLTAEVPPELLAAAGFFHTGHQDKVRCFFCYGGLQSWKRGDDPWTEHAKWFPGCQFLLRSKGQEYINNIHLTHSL
Experimental: The following fluorescence polarization experiments used a chimeric BIR domain referred to as MLXBIR3SG in which 11 of 110 residues correspond to those found in XIAP BIR3, while the remainder correspond to ML-IAP BIR. […] The improved caspase-9 inhibition of the chimeric BIR domain MLXBIR3SG has been correlated with increased inhibition of doxorubicin-induced apoptosis when transfected into MCF7 cells.
as §1, §2

X-IAP BIR3 = molecular target: T4, X-IAP BIR3 (Homo sapiens, UniProt P98170); experiment: Fluorescence polarization peptide binding assay, X-IAP BIR3; conditions: for IC50: 0.5 μM X-IAP BIR3, 5 nM AVP-diPhe-FAM probe, one hour incubation; for Ki: determined from the IC50 values (procedure of Keating et al.)
T4 construct: 0.5 μM X-IAP BIR3
T4 sequence (P98170 241-356 limits assumed): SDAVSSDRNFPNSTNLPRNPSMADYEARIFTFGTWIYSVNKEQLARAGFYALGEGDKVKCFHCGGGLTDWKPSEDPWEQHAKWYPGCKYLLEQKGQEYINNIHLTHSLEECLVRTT
Experimental: as §1, §2

CN[C@@H](C)C(=O)N[C@H](C(=O)N(C)[C@H](C(=O)Nc1snnc1-c1ccccc1)C(C)C)C1CCCCC1 [Compound 14]
IC50 (C-IAP1 BIR3): 140 nM
Ki (C-IAP1 BIR3): 21.7 nM
IC50 (C-IAP2 BIR3): 226 nM
Ki (C-IAP2 BIR3): 48.8 nM
IC50 [1]: 250 nM
Ki [1]: 57 nM
IC50 (X-IAP BIR3): 26400 nM
Ki (X-IAP BIR3): 4700 nM

CN[C@@H](C)C(=O)N[C@H](C(=O)N[C@H](C(=O)Nc1snnc1-c1ccccc1)C(C)(C)SC)C1CCCCC1 [Compound 20, (R)-2-((S)-2-cyclohexyl-2-((S)-2-(methylamino)propanamido)-acetamido)-3-methyl-3-(methylthio)-N-(4-phenyl-1,2,3-thiadiazol-5-yl)butanamide]
IC50 (C-IAP1 BIR3): 133 nM
Ki (C-IAP1 BIR3): 21 nM
IC50 (C-IAP2 BIR3): 202 nM
Ki (C-IAP2 BIR3): 44 nM
IC50 [1]: 249 nM
Ki [1]: 57 nM
IC50 (X-IAP BIR3): 21700 nM
Ki (X-IAP BIR3): 3870 nM

CN[C@@H](C)C(=O)N[C@H](C(=O)N[C@H](C(=O)Nc1snnc1-c1ccccc1)C(C)(C)SCNC(C)=O)C1CCCCC1 [Compound 21]
IC50 (C-IAP1 BIR3): 202 nM
Ki (C-IAP1 BIR3): 31 nM
IC50 (C-IAP2 BIR3): 342 nM
Ki (C-IAP2 BIR3): 74 nM
IC50 [1]: 407 nM
Ki [1]: 93 nM
IC50 (X-IAP BIR3): 22400 nM
Ki (X-IAP BIR3): 3990 nM

CN[C@@H](C)C(=O)N[C@H](C(=O)N[C@H](C(=O)Nc1snnc1-c1ccccc1)C(C)(C)C)C1CCCCC1 [Compound 1]
IC50 (C-IAP1 BIR3): 283 nM and 165 nM
Ki (C-IAP1 BIR3): 44 nM and 26 nM
IC50 (C-IAP2 BIR3): 468 nM and 225 nM
Ki (C-IAP2 BIR3): 101 nM and 49 nM
IC50 [1]: 189 nM and 181 nM
Ki [1]: 43 nM and 41 nM
IC50 (X-IAP BIR3): 9940 nM and 14800 nM
Ki (X-IAP BIR3): 1770 nM and 2630 nM

CN[C@@H](C)C(=O)N[C@H](C(=O)N[C@H](C(=O)Nc1cc(C)nn1-c1ccccc1)C(C)(C)SCc1ccc(OC)cc1)C1CCCCC1 [Compound 16]
IC50 (C-IAP1 BIR3): 738 nM
Ki (C-IAP1 BIR3): 114 nM
IC50 (C-IAP2 BIR3): 1320 nM
Ki (C-IAP2 BIR3): 286 nM
IC50 [1]: 4540 nM
Ki [1]: 1030 nM
IC50 (X-IAP BIR3): > 200000 nM
Ki (X-IAP BIR3): > 35000 nM

CN[C@@H](C)C(=O)N[C@H](C(=O)N[C@H](c1nc(-c2ccc(F)c3ccccc23)cs1)C(C)(C)SCc1ccc(OC)cc1)C1CCCCC1 [Compound 22]
IC50 (C-IAP1 BIR3): 2290 nM
Ki (C-IAP1 BIR3): 354 nM
IC50 (C-IAP2 BIR3): 2450 nM
Ki (C-IAP2 BIR3): 530 nM
IC50 [1]: 8880 nM
Ki [1]: 2020 nM
IC50 (X-IAP BIR3): > 200000 nM
Ki (X-IAP BIR3): > 35000 nM

CN[C@@H](C)C(=O)N[C@H](C(=O)N[C@H](C(=O)Nc1snnc1-c1ccccc1)C(C)(C)F)C1CCCCC1 [Compound 6]
IC50 (C-IAP1 BIR3): 131 nM
Ki (C-IAP1 BIR3): 20 nM
IC50 (C-IAP2 BIR3): 222 nM
Ki (C-IAP2 BIR3): 48 nM
IC50 [1]: 248 nM
Ki [1]: 57 nM
IC50 (X-IAP BIR3): 8840 nM
Ki (X-IAP BIR3): 1570 nM

CN[C@@H](C)C(=O)N[C@H](C(=O)N[C@H](C(=O)Nc1snnc1-c1ccccc1)C(C)(C)SCc1ccc(OC)cc1)C1CCCCC1 [Compound 19]
IC50 (C-IAP1 BIR3): 289 nM
Ki (C-IAP1 BIR3): 45 nM
IC50 (C-IAP2 BIR3): 341 nM
Ki (C-IAP2 BIR3): 74 nM
IC50 [1]: 543 nM
Ki [1]: 124 nM
IC50 (X-IAP BIR3): ~100000 nM
Ki (X-IAP BIR3): 17800 nM

CN[C@@H](C)C(=O)N[C@H](C(=O)N[C@H](C(=O)NCC(c1ccccc1)c1ccccc1)C(C)(C)SCc1ccc(OC)cc1)C1CCCCC1 [Compound 17]
IC50 (C-IAP1 BIR3): 6410 nM
Ki (C-IAP1 BIR3): 993 nM
IC50 (C-IAP2 BIR3): 6530 nM
Ki (C-IAP2 BIR3): 1410 nM
IC50 [1]: 5160 nM
Ki [1]: 1180 nM
IC50 (X-IAP BIR3): > 200000 nM
Ki (X-IAP BIR3): > 35000 nM

CN[C@@H](C)C(=O)N[C@H](C(=O)N[C@H](C(=O)Nc1sc(-c2cnccn2)nc1-c1ccccc1)C(C)(C)C)c1ccccc1 [Compound 11]
IC50 (C-IAP1 BIR3): 13500 nM
Ki (C-IAP1 BIR3): 2090 nM
IC50 (C-IAP2 BIR3): 34500 nM
Ki (C-IAP2 BIR3): 7440 nM
IC50 [1]: ~60000 nM
Ki [1]: 13700 nM
IC50 (X-IAP BIR3): > 200000 nM
Ki (X-IAP BIR3): > 35000 nM

CN[C@@H](C)C(=O)N[C@H](C(=O)N(C)[C@H](C(=O)Nc1snnc1-c1ccccc1)C(C)(C)SC)C1CCCCC1 [Compound 23]
IC50 (C-IAP1 BIR3): 155 nM
Ki (C-IAP1 BIR3): 24 nM
IC50 (C-IAP2 BIR3): 276 nM
Ki (C-IAP2 BIR3): 60 nM
IC50 [1]: 304 nM
Ki [1]: 69 nM
IC50 (X-IAP BIR3): 14000 nM
Ki (X-IAP BIR3): 2490 nM

CN[C@@H](C)C(=O)N[C@H](C(=O)N[C@H](C(=O)Nc1snnc1-c1ccccc1)C(C)(C)S(C)(=O)=O)C1CCCCC1 [Compound 10]
IC50 (C-IAP1 BIR3): 700 nM
Ki (C-IAP1 BIR3): 108 nM
IC50 (C-IAP2 BIR3): 1130 nM
Ki (C-IAP2 BIR3): 244 nM
IC50 [1]: 2400 nM
Ki [1]: 547 nM
IC50 (X-IAP BIR3): 36200 nM
Ki (X-IAP BIR3): 6440 nM

CN[C@@H](C)C(=O)N[C@H](C(=O)N[C@H](C(=O)NCC(c1ccccc1)c1ccccc1)C(C)(C)SCNC(C)=O)C1CCCCC1 [Compound 18]
IC50 (C-IAP1 BIR3): 2550 nM
Ki (C-IAP1 BIR3): 395 nM
IC50 (C-IAP2 BIR3): 4340 nM
Ki (C-IAP2 BIR3): 937 nM
IC50 [1]: 2480 nM
Ki [1]: 564 nM
IC50 (X-IAP BIR3): > 200000 nM
Ki (X-IAP BIR3): > 35000 nM

CN[C@@H](C)C(=O)N[C@H](C(=O)N[C@H](C(=O)NCC(c1ccccc1)c1ccccc1)C(C)(C)OC)C1CCOCC1 [Compound 9]
IC50 (C-IAP1 BIR3): 5840 nM and 3180 nM
Ki (C-IAP1 BIR3): 905 nM and 492 nM
IC50 (X-IAP BIR3): > 200000 nM
Ki (X-IAP BIR3): > 35000 nM

CN[C@@H](C)C(=O)N[C@H](C(=O)N[C@H](C(=O)Nc1snnc1-c1ccccc1)C(F)(F)F)C1CCCCC1 [Compound 5]
IC50 (C-IAP1 BIR3): 2120 nM
Ki (C-IAP1 BIR3): 328 nM
IC50 (C-IAP2 BIR3): 3480 nM
Ki (C-IAP2 BIR3): 751 nM
IC50 [1]: 4820 nM
Ki [1]: 1100 nM
IC50 (X-IAP BIR3): 13500 nM
Ki (X-IAP BIR3): 2410 nM

CN[C@@H](C)C(=O)N[C@H](C(=O)N[C@H](C(=O)NCC(c1ccccc1)c1ccccc1)C(F)(F)F)C1CCCCC1 [Compound 8]
IC50 (C-IAP1 BIR3): 3120 nM
Ki (C-IAP1 BIR3): 483 nM
IC50 (C-IAP2 BIR3): 1940 nM
Ki (C-IAP2 BIR3): 419 nM
IC50 [1]: 899 nM
Ki [1]: 205 nM
IC50 (X-IAP BIR3): > 200000 nM
Ki (X-IAP BIR3): > 35000 nM
